Our source for the viability and CC50 values is PubChem BioAssay AID504335 (Southern Research Specialized Biocontainment Screening …, 2011).

As a reminder, the viability is the share of living cells, or the viability signal relative to a control. What is called CC50 is the concentration at which the toxic effect on the cells reaches its halfway point.

SMILES strings stand for the structures. Active and inactive are the calls of the source. How the calls were made is not given here.

Tested on in one test: not listed separately
As to the kind of experiment: dose response, cytotoxicity control for M. tuberculosis inhibitor project, purified and synthesized compounds (AID 504335). The settings on record: mammalian cell cytotoxicity, viability; at 100 µM (top of the series).
Regarding `COC(=O)C1CC(=O)N(c2ccc(OCc3ccccc3Cl)cc2)C1` (centres undefined), the viability is 90.6% (inactive).

In the case of `CCOC(=O)COn1c2c(c3c4no[n+]([O-])c4ccc31)CCCC2`, the viability was 87.8% (inactive).

In the case of `COC(=O)C(C)Oc1ccc(-c2nccc(-c3ccccn3)n2)cc1` (centres undefined), the viability was 95.7% (inactive).

Consider `O=C(CSc1nc2ccccc2c(=O)[nH]1)NC1CCCCC1`, for which the viability was 81.8% (inactive).

For `O=C(/C=C\c1cccs1)N1CCN(Cc2ccc3c(c2)OCO3)CC1`, the viability was 87.7% (inactive).

As for `CCc1ccc(/C=C2/C(=O)N(C)C(=S)N2CC(=O)OC)s1`, the viability is 92% (inactive).

On to `O=C(CSc1nc2ccccc2c(=O)[nH]1)NCc1ccc(Cl)cc1`, for which the viability is 83% (inactive).

Regarding `Cc1nc(SCC(=O)NC2CCCCC2)[nH]c(=O)c1C`, the viability is 88.8% (inactive).

In the case of `COC(=O)CCc1nc2c(C#N)c(-c3ccc(Cl)cc3)ccn2n1`, the viability was 99.2% (inactive).

Take `COc1cc(NC(=O)C/C(C)=N/NC(=O)c2ccccn2)c(OC)cc1Cl`: the viability was 92.4% (inactive).

`CCOC(=O)COc1ccc(/C=C2\NC(=S)N(CC)C2=O)cc1`: the viability was 94.5% (inactive).

In the case of `Cc1ccc(NC(=O)C2C3/C=C\CCCCC32)cc1C` (centres undefined), the viability is 87.6% (inactive).

Another test deals with mammalian cell cytotoxicity, viability. Described as above.
Conditions: not given
For the molecule `CCOC(=O)c1ccc(NC(=O)Cn2ncc(Cl)c(Cl)c2=O)cc1`, the cytotoxic concentration (CC50) was 7.71 µM.

For the molecule `S=c1nc[nH]c2nc[nH]c12`, the 50% cytotoxic concentration (CC50) is 38.7 µM.

Regarding `Cc1ccc2c(c1)c(C1=c3ccccc3=NC1=O)c(O)n2C`, the CC50 was 10.1 µM.

Consider `CC(=NCc1ccc2c(c1)OCO2)C1=C(O)c2ccccc2C1=O`, for which the CC50 was > 100 µM (inactive).

For `O=C(NCC(c1cccs1)N1CCOCC1)c1cc([N+](=O)[O-])cc([N+](=O)[O-])c1` (centres undefined), the half-maximal cytotoxic concentration (CC50) was 96.7 µM.

As to `CC(C)NC(=O)c1sc(=S)n2c1[nH]c(=O)c1ccc(C(=O)NCCc3ccc(Cl)cc3)cc12`, the CC50 is 99.9 µM.

In the case of `COC(=O)c1cc(=O)n(-c2ccc(F)cc2)c(=Nc2ccc(F)cc2)s1`, the CC50 was 25.7 µM.

As to `CCC(C)Nc1ccc(NC(C)CC)cc1` (centres undefined), the CC50 was 14.3 µM.

Turning to `CNc1nc(SCc2ccccc2Cl)nc2c1CCCC2`, the CC50 was 36 µM.

`Cc1ccc2ccc3ccc(C)nc3c2n1`: the CC50 is 58.5 µM.

For the molecule `Oc1ccccc1/C=N/Nc1ccnc(SCc2ccccc2)n1`, the CC50 is 93.8 µM.

`Cc1cccc(/C=C/C(=O)c2ccc([N+](=O)[O-])o2)c1`: the CC50 was 20.2 µM.
